Experimental data from patent publication US12570612B2, “Substituted nitrogen heterocyclic compound and anesthetic effect thereof” (priority 2019, dated 2026).
pEC50: −log10 of the molar value.

Tests used:
H295R cell line [1] = test: Adrenocortical function in vitro test: secretion of cortisol and corticosterone, Group B compounds; format: cell-based; details: H295R cells; for pEC50: 0.1-10000 nM, HPLC-MS/MS
Sprague-Dawley rats = test: animal or person; details: for ED50: LORR in rats, tail vein, brackets = 95% confidence limit; for Approximate therapeutic index / Minimal lethal dose: rats
Method: Adult male Sprague-Dawley rats (250-300 g) were selected for the experiment. […] The anesthesia effects of the compounds were assessed in rats using a LORR assay and a period >30 s was considered as an indicator of general anesthesia.

H295R cell line [2] = test: Adrenocortical function in vitro test: secretion of cortisol and corticosterone, Group A compounds; format: cell-based; details: H295 cells; for pEC50: 0.1-10000 nM, HPLC-MS/MS
[3] = Homo sapiens, NCI-H295R, read-out: EC50 (Corticosterone)
[4] = Homo sapiens, NCI-H295R, read-out: EC50 (Cortisol)
[5] = read-out: EC50 (Corticosterone)

SMILES	Corticosterone as an indicator to determine the presence of inhibition (H295R cell line [1])	Cortisol as an indicator to determine the presence of inhibition (H295R cell line [1])	pEC50 (H295R cell line [1]; [3])	pEC50 (H295R cell line [1]; [4])	ED50 (Sprague-Dawley rats; Rattus norvegicus)	Approximate therapeutic index (Sprague-Dawley rats)	Minimal lethal dose (Sprague-Dawley rats)	pEC50 (H295R cell line [1]; [5])	pEC50 (H295R cell line [1]; read-out: EC50 (Cortisol))	ED50 (Sprague-Dawley rats)	Corticosterone as an indicator to determine the presence of inhibition (H295R cell line [2])	Cortisol as an indicator to determine the presence of inhibition (H295R cell line [2])	pEC50 (H295R cell line [2]; [5])	pEC50 (H295R cell line [2]; read-out: EC50 (Cortisol))
CC(C)O[C@H]1C[C@@H](OC(=O)c2cnnn2[C@H](C)c2ccccc2)C1 [Compound B26]	0	0	< 7.00	< 7.00	1 to 2 mg/kg	>10	>12 mg/kg	–	–	–	–	–	–	–
CCOC(=O)c1cnnn1[C@H](C)c1ccccc1 [Compound B1]	0	0	–	–	–	>20	>8 mg/kg	< 7.00	< 7.30	A (A indicates that the measured ED50 is in the range of 0.04-0.50 mg/kg (including 0.04 and 0.50 mg/kg))	–	–	–	–
C=CCOC(=O)c1c(Br)nnn1[C@H](C)c1ccccc1 [Compound B108]	0	0	–	–	–	>20	>14 mg/kg	< 5.52	< 5.52	B (B indicates that the measured ED50 is in the range of 0.50-1.00 mg/kg (excluding 0.50 mg/kg, including 1.00 mg/kg))	–	–	–	–
COC(=O)C1(OC(=O)c2c(Br)nnn2[C@H](C)c2ccccc2)CC1 [Compound B121]	0	0	< 6.00	< 6.00	2 to 10 mg/kg	>3	>20 mg/kg	–	–	–	–	–	–	–
CCOC(=O)c1c(C(F)(F)F)nnn1[C@H](C)c1ccccc1 [Compound B145]	0	0	< 5.52	< 5.52	2 to 10 mg/kg	>4	>18 mg/kg	–	–	–	–	–	–	–
C=CCOC(=O)c1c(I)nnn1[C@H](C)c1ccccc1 [Compound B136]	0	0	–	–	–	>6	>18 mg/kg	< 6.00	< 6.00	D (D indicates that the measured ED50 is in the range of 2.00-10.00 mg/kg (excluding 2.00 mg/kg, including 10.00 mg/kg))	–	–	–	–
C[C@H](c1ccccc1)n1nncc1C(=O)OC1CC1 [Compound B18]	0	0	< 7.00	< 7.00	1 to 2 mg/kg	>12	>14 mg/kg	–	–	–	–	–	–	–
C=C=CC1(OC(=O)c2c(F)nnn2[C@H](C)c2ccccc2)COC1 [Compound B35]	0	0	< 6.00	< 6.00	0.04 to 0.5 mg/kg	>29	>8 mg/kg	–	–	–	–	–	–	–
CCOC(=O)c1nnn([C@H](C)c2ccccc2)c1C(F)(F)F [Compound B146]	0	0	–	–	–	>8	>14 mg/kg	< 5.52	< 5.52	C (C indicates that the measured ED50 is in the range of 1.00-2.00 mg/kg (excluding 1.00 mg/kg, including 2.00 mg/kg))	–	–	–	–
C[C@H](c1ccccc1)n1cncc1C(=O)O [Etomidate acid, etomidate acid, reference compound]	0	0	–	–	–	–	–	< 5.00	< 5.00	–	0	0	< 5.00	< 5.00
